# According to PMC6979384, “Characterization of the plant homeodomain (PHD) reader family for their histone tail interactions” (Epigenetics & Chromatin, 2020):
# How the values were obtained:
# Assay in all cases: Histone peptide microarray
# Format in all cases: binding, human
# TRIM66 (PB) = conditions: arrays performed twice, n of 4; for Array Heatmap signal, TRIM66 (PB): GST-tagged TRIM66 (PB = PHD + Bromodomain), histone peptide array
# Outline: (§1)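 Binding read as mean relative signal from 4 replicates; microarray held 293 synthetic histone peptides with single or combinatorial PTMs. Each GST-tagged PHD reader was applied at 0.5 μM using the optimized Petell protocol.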
# BPTF (PB) = conditions: arrays performed twice, n of 4; for Array Heatmap signal, BPTF (PB): GST-tagged BPTF (PB = PHD + Bromodomain), histone peptide array
# Outline: as §1
# KDM7A = conditions: arrays performed twice, n of 4; for Array Heatmap signal, KDM7A: GST-tagged KDM7A, histone peptide array
# Outline: as §1
# KDM4C (TTP) = conditions: arrays performed twice, n of 4; for Array Heatmap signal, KDM4C (TTP): GST-tagged KDM4C (TTP = Tandem Tudor domain + PHD), histone peptide array
# Outline: as §1
# KDM5B (1) = conditions: arrays performed twice, n of 4; for Array Heatmap signal, KDM5B (1): GST-tagged KDM5B (1), histone peptide array
# Outline: as §1
# ING2 = conditions: arrays performed twice, n of 4; for Array Heatmap signal, ING2: GST-tagged ING2, histone peptide array
# Outline: as §1
# CHD5 (PPCC) = conditions: arrays performed twice, n of 4; for Array Heatmap signal, CHD5 (PPCC): GST-tagged CHD5 (PPCC = Dual PHD + Dual Chromodomain), histone peptide array
# Outline: as §1
# PHF23 = conditions: arrays performed twice, n of 4; for Array Heatmap signal, PHF23: GST-tagged PHF23, histone peptide array
# Outline: as §1
# ING4 = conditions: arrays performed twice, n of 4; for Array Heatmap signal, ING4: GST-tagged ING4, histone peptide array
# Outline: as §1
# CHD4 (PPCC) = conditions: arrays performed twice, n of 4; for Array Heatmap signal, CHD4 (PPCC): GST-tagged CHD4 (PPCC = Dual PHD + Dual Chromodomain), histone peptide array
# Outline: as §1
# CHD5 (PCC) = conditions: arrays performed twice, n of 4; for Array Heatmap signal, CHD5 (PCC): GST-tagged CHD5 (PCC = PHD + Dual Chromodomain), histone peptide array
# Outline: as §1
# TAF3 = conditions: arrays performed twice, n of 4; for Array Heatmap signal, TAF3: GST-tagged TAF3, histone peptide array
# Outline: as §1
# PHF8 = conditions: arrays performed twice, n of 4; for Array Heatmap signal, PHF8: GST-tagged PHF8, histone peptide array
# Outline: as §1
# DPF2 (PPC2W2) = conditions: arrays performed twice, n of 4; for Array Heatmap signal, DPF2 (PPC2W2): GST-tagged DPF2 (PPC2W2 = Dual PHD + C2W2-type Zn-finger), histone peptide array
# Outline: as §1
# DIDO1 = conditions: arrays performed twice, n of 4; for Array Heatmap signal, DIDO1: GST-tagged DIDO1, histone peptide array
# Outline: as §1
# ING1 = conditions: arrays performed twice, n of 4; for Array Heatmap signal, ING1: GST-tagged ING1, histone peptide array
# Outline: as §1
# BAZ2B = conditions: arrays performed twice, n of 4; for Array Heatmap signal, BAZ2B: GST-tagged BAZ2B, histone peptide array
# Outline: as §1
# PHF2 = conditions: arrays performed twice, n of 4; for Array Heatmap signal, PHF2: GST-tagged PHF2, histone peptide array
# Outline: as §1
# SP140L = conditions: arrays performed twice, n of 4; for Array Heatmap signal, SP140L: GST-tagged SP140L, histone peptide array
# Outline: as §1
# PHRF1 (RP) = conditions: arrays performed twice, n of 4; for Array Heatmap signal, PHRF1 (RP): GST-tagged PHRF1 (RP), histone peptide array
# Outline: as §1
# RAG2 = conditions: arrays performed twice, n of 4; for Array Heatmap signal, RAG2: GST-tagged RAG2, histone peptide array
# Outline: as §1
# PHF13 = conditions: arrays performed twice, n of 4; for Array Heatmap signal, PHF13: GST-tagged PHF13, histone peptide array
# Outline: as §1
# KDM5B (3) = conditions: arrays performed twice, n of 4; for Array Heatmap signal, KDM5B (3): GST-tagged KDM5B (3), histone peptide array
# Outline: as §1
# ING5 = conditions: arrays performed twice, n of 4; for Array Heatmap signal, ING5: GST-tagged ING5, histone peptide array
# Outline: as §1
# AIRE (PP) = conditions: arrays performed twice, n of 4; for Array Heatmap signal, AIRE (PP): GST-tagged AIRE (PP), histone peptide array
# Outline: as §1
# KDM5A (1) = conditions: arrays performed twice, n of 4; for Array Heatmap signal, KDM5A (1): GST-tagged KDM5A (1), histone peptide array
# Outline: as §1
# PHF21A = conditions: arrays performed twice, n of 4; for Array Heatmap signal, PHF21A: GST-tagged PHF21A, histone peptide array
# Outline: as §1
# KDM5A (3) = conditions: arrays performed twice, n of 4; for Array Heatmap signal, KDM5A (3): GST-tagged KDM5A (3), histone peptide array
# Outline: as §1
# MLL5 = conditions: arrays performed twice, n of 4; for Array Heatmap signal, MLL5: GST-tagged MLL5, histone peptide array
# Outline: as §1
# MORC3 (CW) = conditions: arrays performed twice, n of 4; for Array Heatmap signal, MORC3 (CW): GST-tagged MORC3 (CW = CW-type Zn-finger), histone peptide array
# Outline: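 GST-tagged PHD finger readers were expressed, purified and applied at 0.5 μM to a microarray of 293 synthetic histone peptides carrying single or combinatorial PTMs, using an optimized protocol. Binding signals are averages with standard deviation from 4 replicates.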
# ING3 = conditions: arrays performed twice, n of 4; for Array Heatmap signal, ING3: GST-tagged ING3, histone peptide array
# Outline: as §1
substance,measurement,setting,value
H4K12ac + K16ac + K20me2: H4 11-27,"Array Heatmap signal, TRIM66 (PB)",TRIM66 (PB),0.6093
same,"Array Heatmap signal, BPTF (PB)",BPTF (PB),0.3936
same,"Array Heatmap signal, KDM7A",KDM7A,0.418
same,"Array Heatmap signal, KDM4C (TTP)",KDM4C (TTP),0.537
same,"Array Heatmap signal, KDM5B (1)",KDM5B (1),0.6899
same,"Array Heatmap signal, ING2",ING2,0.6089
same,"Array Heatmap signal, CHD5 (PPCC)",CHD5 (PPCC),0.6049
same,"Array Heatmap signal, PHF23",PHF23,0.5618
same,"Array Heatmap signal, ING4",ING4,0.4756
same,"Array Heatmap signal, CHD4 (PPCC)",CHD4 (PPCC),0.5676
same,"Array Heatmap signal, CHD5 (PCC)",CHD5 (PCC),0.8229
same,"Array Heatmap signal, TAF3",TAF3,0.2922
same,"Array Heatmap signal, PHF8",PHF8,0.3877
same,"Array Heatmap signal, DPF2 (PPC2W2)",DPF2 (PPC2W2),0.6546
same,"Array Heatmap signal, DIDO1",DIDO1,0.7262
same,"Array Heatmap signal, ING1",ING1,0.5241
same,"Array Heatmap signal, BAZ2B",BAZ2B,0.5022
same,"Array Heatmap signal, PHF2",PHF2,0.4604
same,"Array Heatmap signal, SP140L",SP140L,0.3577
same,"Array Heatmap signal, PHRF1 (RP)",PHRF1 (RP),0.4498
same,"Array Heatmap signal, RAG2",RAG2,0.281
same,"Array Heatmap signal, PHF13",PHF13,0.6561
same,"Array Heatmap signal, KDM5B (3)",KDM5B (3),0.5172
same,"Array Heatmap signal, ING5",ING5,0.405
same,"Array Heatmap signal, AIRE (PP)",AIRE (PP),0.4913
same,"Array Heatmap signal, KDM5A (1)",KDM5A (1),0.4994
same,"Array Heatmap signal, PHF21A",PHF21A,0.4824
same,"Array Heatmap signal, KDM5A (3)",KDM5A (3),0.5092
same,"Array Heatmap signal, MLL5",MLL5,0.5834
same,"Array Heatmap signal, MORC3 (CW)",MORC3 (CW),0.4076
same,"Array Heatmap signal, ING3",ING3,0.5264
H4K12ac + K16ac + K20me3: H4 11-27,"Array Heatmap signal, TRIM66 (PB)",TRIM66 (PB),0.6534
same,"Array Heatmap signal, BPTF (PB)",BPTF (PB),0.3647
same,"Array Heatmap signal, KDM7A",KDM7A,0.4502
same,"Array Heatmap signal, KDM4C (TTP)",KDM4C (TTP),0.5508
same,"Array Heatmap signal, KDM5B (1)",KDM5B (1),0.6527
same,"Array Heatmap signal, ING2",ING2,0.5812
same,"Array Heatmap signal, CHD5 (PPCC)",CHD5 (PPCC),0.6012
same,"Array Heatmap signal, PHF23",PHF23,0.5129
same,"Array Heatmap signal, ING4",ING4,0.5105
same,"Array Heatmap signal, CHD4 (PPCC)",CHD4 (PPCC),0.6123
same,"Array Heatmap signal, CHD5 (PCC)",CHD5 (PCC),0.9097
same,"Array Heatmap signal, TAF3",TAF3,0.2674
same,"Array Heatmap signal, PHF8",PHF8,0.3563
same,"Array Heatmap signal, DPF2 (PPC2W2)",DPF2 (PPC2W2),0.7109
same,"Array Heatmap signal, DIDO1",DIDO1,0.6408
same,"Array Heatmap signal, ING1",ING1,0.5304
same,"Array Heatmap signal, BAZ2B",BAZ2B,0.5532
same,"Array Heatmap signal, PHF2",PHF2,0.4705
same,"Array Heatmap signal, SP140L",SP140L,0.368
same,"Array Heatmap signal, PHRF1 (RP)",PHRF1 (RP),0.4386
same,"Array Heatmap signal, RAG2",RAG2,0.2525
same,"Array Heatmap signal, PHF13",PHF13,0.6523
same,"Array Heatmap signal, KDM5B (3)",KDM5B (3),0.5038
same,"Array Heatmap signal, ING5",ING5,0.3933
same,"Array Heatmap signal, AIRE (PP)",AIRE (PP),0.5868
same,"Array Heatmap signal, KDM5A (1)",KDM5A (1),0.5006
same,"Array Heatmap signal, PHF21A",PHF21A,0.52
same,"Array Heatmap signal, KDM5A (3)",KDM5A (3),0.4096
same,"Array Heatmap signal, MLL5",MLL5,0.5614
same,"Array Heatmap signal, MORC3 (CW)",MORC3 (CW),0.4027
same,"Array Heatmap signal, ING3",ING3,0.4869
H4K12ac + K20ac: H4 1-23,Array Heatmap value (peptide array binding signal),"TRIM66 (PB); TRIM66 (PB), GST-tagged",0.5961
same,Array Heatmap value (peptide array binding signal),"BPTF (PB); BPTF (PB), GST-tagged",0.3685
same,Array Heatmap value (peptide array binding signal),"KDM7A; KDM7A, GST-tagged",0.4248
same,Array Heatmap value (peptide array binding signal),"KDM4C (TTP); KDM4C (TTP), GST-tagged",0.5414
same,Array Heatmap value (peptide array binding signal),"KDM5B (1); KDM5B (1), GST-tagged",0.6403
same,Array Heatmap value (peptide array binding signal),"ING2; ING2, GST-tagged",0.5908
same,Array Heatmap value (peptide array binding signal),"CHD5 (PPCC); CHD5 (PPCC), GST-tagged",0.5873
same,Array Heatmap value (peptide array binding signal),"PHF23; PHF23, GST-tagged",0.5334
same,Array Heatmap value (peptide array binding signal),"ING4; ING4, GST-tagged",0.4824
same,Array Heatmap value (peptide array binding signal),"CHD4 (PPCC); CHD4 (PPCC), GST-tagged",0.6135
same,Array Heatmap value (peptide array binding signal),"CHD5 (PCC); CHD5 (PCC), GST-tagged",0.8332
same,Array Heatmap value (peptide array binding signal),"TAF3; TAF3, GST-tagged",0.2733
same,Array Heatmap value (peptide array binding signal),"PHF8; PHF8, GST-tagged",0.3219
same,Array Heatmap value (peptide array binding signal),"DPF2 (PPC2W2); DPF2 (PPC2W2), GST-tagged",0.6377
same,Array Heatmap value (peptide array binding signal),"DIDO1; DIDO1, GST-tagged",0.604
same,Array Heatmap value (peptide array binding signal),"ING1; ING1, GST-tagged",0.4954
same,Array Heatmap value (peptide array binding signal),"BAZ2B; BAZ2B, GST-tagged",0.5161
same,Array Heatmap value (peptide array binding signal),"PHF2; PHF2, GST-tagged",0.4316
same,Array Heatmap value (peptide array binding signal),"SP140L; SP140L, GST-tagged",0.3715
same,Array Heatmap value (peptide array binding signal),"PHRF1 (RP); PHRF1 (RP), GST-tagged",0.4
same,Array Heatmap value (peptide array binding signal),"RAG2; RAG2, GST-tagged",0.2498
same,Array Heatmap value (peptide array binding signal),"PHF13; PHF13, GST-tagged",0.6532
same,Array Heatmap value (peptide array binding signal),"KDM5B (3); KDM5B (3), GST-tagged",0.5497
same,Array Heatmap value (peptide array binding signal),"ING5; ING5, GST-tagged",0.3842
same,Array Heatmap value (peptide array binding signal),"AIRE (PP); AIRE (PP), GST-tagged",0.5505
same,Array Heatmap value (peptide array binding signal),"KDM5A (1); KDM5A (1), GST-tagged",0.5024
same,Array Heatmap value (peptide array binding signal),"PHF21A; PHF21A, GST-tagged",0.5207
same,Array Heatmap value (peptide array binding signal),"KDM5A (3); KDM5A (3), GST-tagged",0.3797
same,Array Heatmap value (peptide array binding signal),"MLL5; MLL5, GST-tagged",0.5351
same,Array Heatmap value (peptide array binding signal),"MORC3 (CW); MORC3 (CW), GST-tagged",0.3391
same,Array Heatmap value (peptide array binding signal),"ING3; ING3, GST-tagged",0.496
